Data taken from the supplement of paper PMC10307832.

What was measured:
Test in all cases: relative viability (nuclei count vs DMSO), 5 days (fraction); higher = more cells survive
[1] = compound: C1=CC=C2C(=C1)C=CC(=C2SSC3=C(C=CC4=CC=CC=C43)O)O [IPA-3] + NC(=O)Nc1cc(-c2cccc(F)c2)sc1C(=O)N[C@H]1CCCNC1 [AZD7762] (partner 0.2 µM)
In short: (§1)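 Dosing by pin tool came one day after lung cancer cell lines were seeded in 1536-well plates, using either one drug or a fixed anchor-drug dose plus five library-drug doses (not always all listed) in √10 steps. After 5 days, nuclei were counted on 4× images. Relative viability is treated-well nuclei count divided by vehicle-well nuclei count, and values are medians of duplicate plates.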

[2] = compound: Cn1c(Nc2ccc(C(F)(F)F)cc2)nc2cc(Oc3ccnc(-c4ncc(C(F)(F)F)[nH]4)c3)ccc21 [RAF265] + CC(=O)Nc1cccc(-n2c(=O)n(C3CC3)c(=O)c3c(Nc4ccc(I)cc4F)n(C)c(=O)c(C)c32)c1 [Trametinib] (partner 0.02 µM)
In short: as §1

[3] = compound: C1=CC=C2C(=C1)C=CC(=C2SSC3=C(C=CC4=CC=CC=C43)O)O [IPA-3] + Nc1ncn([C@H]2C[C@H](O)[C@@H](CO)O2)c(=O)n1 [Decitabine] (partner 2 µM)
In short: as §1

[4] = compound: C1=CC=C2C(=C1)C=CC(=C2SSC3=C(C=CC4=CC=CC=C43)O)O [IPA-3] + Nc1nc2[nH]cc(CCc3ccc(C(=O)N[C@@H](CCC(=O)O)C(=O)O)cc3)c2c(=O)[nH]1 [Pemetrexed] (partner 0.2 µM)
In short: as §1

Cell Line | relative viability ([1]; first compound 0.2 µM) | relative viability ([1]; first compound 0.6325 µM) | relative viability ([1]; first compound 2 µM) | relative viability ([1]; first compound 6.325 µM) | relative viability ([1]; first compound 20 µM) | relative viability ([2]; first compound 0.01 µM) | relative viability ([2]; first compound 0.03162 µM) | relative viability ([2]; first compound 0.1 µM) | relative viability ([2]; first compound 0.3162 µM) | relative viability ([2]; first compound 1 µM) | relative viability ([3]; first compound 0.2 µM) | relative viability ([3]; first compound 0.6325 µM) | relative viability ([3]; first compound 2 µM) | relative viability ([3]; first compound 6.325 µM) | relative viability ([3]; first compound 20 µM) | relative viability ([4]; first compound 0.2 µM) | relative viability ([4]; first compound 0.6325 µM) | relative viability ([4]; first compound 2 µM) | relative viability ([4]; first compound 6.325 µM) | relative viability ([4]; first compound 20 µM)
NCI-H647 | 0.675 | 0.408 | 0.555 | 0.402 | 0.0953 | 0.46 | 0.451 | 0.277 | 0.222 | 0.19 | 0.502 | 0.396 | 0.397 | 0.206 | 0.134 | 0.164 | 0.162 | 0.209 | 0.134 | 0.089
NCI-H650 | 1.1 | 1.01 | 1.08 | 0.935 | 1.08 | 1.05 | 0.972 | 1.05 | 0.569 | 0.328 | 0.297 | 0.33 | 0.292 | 0.294 | 0.348 | 1.22 | 0.873 | 1.03 | 0.852 | 1.15
NCI-H838 | 1.05 | 0.94 | 1 | 0.967 | 1.08 | 0.542 | 0.511 | 0.518 | 0.462 | 0.39 | 0.579 | 0.444 | 0.456 | 0.398 | 0.443 | 0.266 | 0.236 | 0.258 | 0.271 | 0.322
NCI-H1355 | 0.807 | 0.764 | 0.73 | 0.827 | 0.719 | 0.438 | 0.355 | 0.383 | 0.283 | 0.206 | 0.385 | 0.36 | 0.375 | 0.349 | 0.34 | 1.13 | 1.08 | 1 | 1.06 | 0.945
NCI-H1395 | 0.377 | 0.413 | 0.423 | 0.373 | 0.345 | 1.12 | 0.933 | 1.1 | 0.968 | 0.685 | 0.688 | 0.666 | 0.728 | 0.687 | 0.714 | 0.925 | 0.842 | 0.822 | 0.887 | 0.912
NCI-H1437 | 1.2 | 1.08 | 1.18 | 1.06 | 1.19 | 0.544 | 0.552 | 0.505 | 0.716 | 0.493 | 0.601 | 0.515 | 0.543 | 0.596 | 0.581 | 0.298 | 0.294 | 0.32 | 0.323 | 0.334
NCI-H1648 | 0.673 | 0.863 | 0.751 | 0.621 | 0.825 | 0.534 | 0.455 | 0.535 | 0.387 | 0.29 | 0.529 | 0.465 | 0.4 | 0.59 | 0.525 | 0.69 | 0.855 | 0.558 | 0.584 | 0.777
NCI-H1651 | 0.573 | 0.473 | 0.411 | 0.554 | 0.499 | 0.797 | 0.808 | 0.795 | 0.796 | 0.734 | 0.699 | 0.596 | 0.631 | 0.644 | 0.549 | 0.602 | 0.606 | 0.621 | 0.591 | 0.679
